{"source": "patent US7897369B2", "about": "“Isoprenoid wax ester synthases, isoprenoid acyl CoA-synthetases, and uses thereof” (Regents of the University of Minnesota, priority 2007, dated 2011)", "molecules": {"B1": {"name": "WS2 (Marinobacter nauticus) (protein)", "chain": "MKRLGTLDASWLAVESEDTPMHVGTLQIFSLPEGAPETFLRDMVTRMKEAGDVAPPWGYKLAWSGFLGRVIAPAWKVDKDIDLDYHVRHSALPRPGGERELGILVSRLHSNPLDFSRPLWECHVIEGLENNRFALYTKMHHSMIDGISGVRLMQRVLTTDPERCNMPPPWTVRPHQRRGAKTDKEASVPAAVSQAMDALKLQADMAPRLWQAGNRLVHSVRHPEDGLTAPFTGPVSVLNHRVTAQRRFATQHYQLDRLKNLAHASGGSLNDIVLYLCGTALRRFLAEQNNLPDTPLTAGIPVNIRPADDEGTGTQISFMIASLATDEADPLNRLQQIKTSTRRAKEHLQKLPKSALTQYTMLLMSPYILQLMSGLGGRMRPVFNVTISNVPGPEGTLYYEGARLEAMYPVSLIAHGGALNITCLSYAGSLNFGFTGCRDTLPSMQKLAVYTGEALDELESLILPPKKRARTRK"}}, "key": {"[1]": {"biological_target": "T1, WS2 (Marinobacter nauticus, UniProt A3RE51)", "experiment": "Kinetic WS assay, spectrophotometric (CoA release, DTNB)", "assay_type": "biochemical, Marinobacter hydrocarbonoclasticus DSM 8798", "details": "for Acyl-CoA specificity of WS2: hexadecanol as acyl acceptor, both substrates 1 mM", "procedure": "Assay reactions were preincubated at 37° C. for 5 min before the reactions were started by the addition of enzyme. Heat-denatured enzyme (99° C. for 15 min) was used as a negative control.\nAcyl-CoA and fatty/isoprenoid alcohol specificity of WS2 was determined in the same manner as described for the kinetic WS assay with assumed saturating conditions containing both the fatty/isoprenoid alcohol and acyl-CoA substrates at a concentration of 1 mM. Acyl-CoA specificity was measured with hexadecanol as acyl acceptor, whereas palmitoyl-CoA was used as acyl donor to determine alcohol specificity.\nA spectrophotometric assay was developed to determine the kinetic properties of WS1 and WS2. […] The specific activities of WS1, WS2, and Acinetobacter WS/DGAT were measured with palmitoyl-CoA and hexadecanol, palmitoyl-CoA and phytol, and phytanoyl-CoA and phytol. Phytanoyl-CoA for these assays was enzymatically synthesized from phytanic acid and CoA using the above-characterized isoprenoid/acyl-CoA synthetase Acs2."}, "[2]": {"biological_target": "T2, Acinetobacter WS/DGAT (Acinetobacter baylyi, UniProt Q8GGG1)", "T2 construct": "His6 (N); made in house", "T2 sequence (Q8GGG1 1-458)": "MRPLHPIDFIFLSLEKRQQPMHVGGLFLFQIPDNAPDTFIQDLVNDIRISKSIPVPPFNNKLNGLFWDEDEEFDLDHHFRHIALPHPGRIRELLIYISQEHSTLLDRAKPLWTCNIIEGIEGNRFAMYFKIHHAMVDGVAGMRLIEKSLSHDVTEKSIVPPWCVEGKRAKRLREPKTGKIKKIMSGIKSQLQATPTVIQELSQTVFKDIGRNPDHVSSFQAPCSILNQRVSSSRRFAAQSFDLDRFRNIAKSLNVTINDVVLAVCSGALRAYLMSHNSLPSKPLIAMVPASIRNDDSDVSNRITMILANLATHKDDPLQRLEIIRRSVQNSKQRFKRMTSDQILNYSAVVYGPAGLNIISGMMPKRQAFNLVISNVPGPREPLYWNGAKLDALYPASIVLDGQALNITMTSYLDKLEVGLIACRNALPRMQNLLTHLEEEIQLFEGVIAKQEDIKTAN", "experiment": "Kinetic WS assay, spectrophotometric (CoA release, DTNB)", "assay_type": "biochemical", "procedure": "(§1) WS activity was determined by monitoring CoA release using Ellman's reagent [5,5′-dithio-bis(2-nitrobenzoic acid); DTNB] at 412 nm (ε=13,600 M^−1 cm^−1) (Ellman, 1959. Arch. Biochem. Biophys. 82:70-77). Kinetic in vitro assays were performed in triplicate in 125 mM sodium phosphate buffer (pH 7.4) containing 0.1% Tergitol NP-11 detergent, 10 mM MgCl2, 1 mM DNTB, 250 μM palmitoyl-CoA, 1 to 250 μM hexadecanol, and 0.5 μg of WS enzyme. Assay reactions were preincubated at 37° C. for 5 min before the reactions were started by the addition of enzyme. Heat-denatured enzyme (99° C. for 15 min) was used as a negative control.\n(§2) Acyl-CoA and fatty/isoprenoid alcohol specificity of WS2 was determined in the same manner as described for the kinetic WS assay with assumed saturating conditions containing both the fatty/isoprenoid alcohol and acyl-CoA substrates at a concentration of 1 mM. Acyl-CoA specificity was measured with hexadecanol as acyl acceptor, whereas palmitoyl-CoA was used as acyl donor to determine alcohol specificity. Isoprenoid WS activity of WS2 was determined with 250 μM HPLC purified phytanoyl-CoA and 250 μM phytol as substrates.\n(§3) A spectrophotometric assay was developed to determine the kinetic properties of WS1 and WS2. The concentration of sulfhydryl groups of CoA released during the condensation reaction between fatty/isoprenoid CoA activated acids and alcohols was determined by using Ellman's reagent (DTNB) (Ellman, 1959. Arch. Biochem. Biophys. 82:70-77). The specific activities of WS1, WS2, and Acinetobacter WS/DGAT were measured with palmitoyl-CoA and hexadecanol, palmitoyl-CoA and phytol, and phytanoyl-CoA and phytol. Phytanoyl-CoA for these assays was enzymatically synthesized from phytanic acid and CoA using the above-characterized isoprenoid/acyl-CoA synthetase Acs2."}, "[3]": {"test_system": "WS1", "experiment": "Kinetic WS assay, spectrophotometric (CoA release, DTNB)", "assay_type": "biochemical, Marinobacter hydrocarbonoclasticus DSM 8798", "procedure": "as §1, §2, §3"}, "[4]": {"biological_target": "T1, WS2", "experiment": "WS2 kinetics on ethanol and oleoyl-CoA (DTNB)", "assay_type": "biochemical, Marinobacter hydrocarbonoclasticus", "procedure": "(§4) […] Assay reactions were pre-incubated at 37° C. for 5 minutes before the reactions were started by the addition of enzyme."}, "[5]": {"test_system": "WS1", "experiment": "Coupled enzyme assay, WS substrate profile (TLC)", "assay_type": "biochemical, Marinobacter hydrocarbonoclasticus DSM 8798", "details": "coupled reaction; palmitic acid with hexadecanol, phytanic acid with phytol, phytanoyl-CoA with the alcohols named in the value", "procedure": "(§5) Stock solutions of various substrates were prepared in 50 mM Tris-HCl buffer (pH 8) containing 1% gum arabic, 12.5 μg bovine serum albumin ml^−1, 0.1% taurocholate, and either 100 mM fatty acid, isoprenoid acid, fatty alcohol, or isoprenoid alcohol. Stock solutions were sonicated to disperse the substrates. Substrate profiles of the three WS were tested using coupled enzyme in vitro reactions in which the CoA synthetases Acs1 and Acs2 are added to synthesize the CoA-activated fatty acid phytanic acid substrates from corresponding acid precursors for the WS reactions. Assays were carried out in 500-μl reactions containing in 50 mM Tris-HCl buffer (pH 8.0), 12.5 μl of each acid, and alcohol substrate stock solution (final concentrations of each substrate of 250 μM), 10 mM MgCl2, 10 mM CoASH, 10 mM ATP, 5 mM TCEP, 0.1 U of inorganic pyrophosphatase, 0.25 μg of Acs1 and Acs2 CoA synthetase, and 0.5 μg of WS to be tested. Assays were incubated at 37° C. overnight before thin-layer chromatography (TLC) analysis of the reaction products.\n(§6) In vitro WS assay samples were extracted with 500 μl of chloroformmethanol (1:1 [vol/vol]), and extracts were analyzed by TLC with Whatman normal phase silica gel 60 plates and developed using hexane-diethyl ether-acetic acid (90:10:1 [vol/vol/vol]). TLC plates were stained with either iodine vapor or anisaldehyde solution as described earlier (Jork et al., 1990. Thin-layer chromatography reagents and detection methods, vol. 1a. Physical and chemical detection methods: fundamentals, reagents. VHC, Weinheim, Germany). Palmitoyl palmitate and triolein were used as WE and TAG reference compounds, respectively."}, "[6]": {"biological_target": "T1, WS2", "experiment": "Coupled enzyme assay, WS substrate profile (TLC)", "assay_type": "biochemical, Marinobacter hydrocarbonoclasticus DSM 8798", "details": "coupled reaction; palmitic acid with hexadecanol, phytanic acid with phytol, phytanoyl-CoA with the alcohols named in the value", "procedure": "as §5, §6"}, "[7]": {"substrate": "CCCCCCCCCCCCCCCCO", "experiment": "Kinetic WS assay, spectrophotometric (CoA release, DTNB)", "assay_type": "biochemical, Marinobacter hydrocarbonoclasticus DSM 8798", "details": "other: saturating palmitoyl-CoA (250 μM), various concentrations of hexadecanol; pH 7.4"}, "[8]": {"substrate": "CCCCCCCC/C=C\\CCCCCCCC(=O)SCCNC(=O)CCNC(=O)[C@H](O)C(C)(C)COP(=O)(O)OP(=O)(O)OC[C@H]1O[C@@H](n2cnc3c(N)ncnc32)[C@H](O)[C@@H]1OP(=O)(O)O", "experiment": "WS2 kinetics on ethanol and oleoyl-CoA (DTNB)", "assay_type": "biochemical, Marinobacter hydrocarbonoclasticus", "details": "other: steady state; varied substrate 10 μM-250 μM, other substrate (oleoyl-CoA or ethanol) 500 μM; pH 7.2; 37.0 °C", "procedure": "as §4"}, "[9]": {"details": "co-substrate hexadecanol (C16), listed as palmitoyl-CoA"}, "[10]": {"details": "steady state, varied substrate 10 μM-250 μM, other substrate (oleoyl-CoA or ethanol) 500 μM"}}, "note": "Entries after “also recorded” stand apart in the source; their conditions may differ."}
{"molecule": "CCCCCCCCCCCCCCCC(=O)SCCNC(=O)CCNC(=O)[C@H](O)C(C)(C)COP(=O)(O)OP(=O)(O)OC[C@H]1O[C@@H](n2cnc3c(N)ncnc32)[C@H](O)[C@@H]1OP(=O)(O)O", "note": "[Palmitoyl-CoA, palmitoyl-CoA (C16:0)]", "values": [{"measurement": "Mean sp act ± SD of Marinobacter WS2", "setting": "[1]; co-substrate hexadecanol (C16)", "value": "61.323 ± 1.79", "unit": "mmol/min/mg"}, {"measurement": "Mean sp act ± SD of Marinobacter WS2", "setting": "[1]; [9]", "value": 61, "unit": "mmol/min/mg"}, {"measurement": "Mean sp act ± SD of Marinobacter WS2", "setting": "[1]; co-substrate phytol", "value": "28.872 ± 2.13", "unit": "mmol/min/mg"}, {"measurement": "Acyl-CoA specificity of WS2", "setting": "[1]", "value": "clear preference"}, {"measurement": "WS2 more active than WS1 or Acinetobacter WS/DGAT in creating the hybrid WE", "setting": "[1]; palmitoyl-CoA and phytol as substrates", "value": 20, "unit": "fold"}, {"measurement": "Mean sp act ± SD of Acinetobacter WS/DGAT", "setting": "[2]; co-substrate hexadecanol (C16)", "value": "0.389 ± 0.039", "unit": "mmol/min/mg"}, {"measurement": "Mean sp act ± SD of Acinetobacter WS/DGAT", "setting": "[2]; [9]", "value": 0.38, "unit": "mmol/min/mg"}, {"measurement": "Mean sp act ± SD of Acinetobacter WS/DGAT", "setting": "[2]; co-substrate phytol", "value": "0.138 ± 0.003", "unit": "mmol/min/mg"}, {"measurement": "Mean sp act ± SD of Marinobacter WS1", "setting": "[3]; co-substrate hexadecanol (C16)", "value": "1.338 ± 0.5", "unit": "mmol/min/mg"}, {"measurement": "Mean sp act ± SD of Marinobacter WS1", "setting": "[3]; [9]", "value": 1.3, "unit": "mmol/min/mg"}, {"measurement": "Mean sp act ± SD of Marinobacter WS1", "setting": "[3]; co-substrate phytol", "value": "0.152 ± 0.011", "unit": "mmol/min/mg"}]}
{"molecule": "CCO", "note": "[Ethanol]", "values": [{"measurement": "Kcat of WS2", "setting": "[4]; steady state on ethanol and oleoyl-CoA", "value": 32, "unit": "s⁻¹"}, {"measurement": "Km", "setting": "[4]; [10]", "value": 17, "unit": "µM"}, {"measurement": "Vmax of WS2", "setting": "[4]; [10]", "value": "1250 μmol (mg/min)^−1"}]}
{"molecule": "CC(C)CCCC(C)CCCC(C)CCCC(C)CC(=O)SCCNC(=O)CCNC(=O)[C@H](O)C(C)(C)COP(=O)(O)OP(=O)(O)OC[C@H]1O[C@@H](n2cnc3c(N)ncnc32)[C@H](O)[C@@H]1OP(=O)(O)O", "note": "(some centres unmarked) [Phytanoyl-CoA]", "values": [{"measurement": "Mean sp act ± SD of Marinobacter WS2", "setting": "[1]; co-substrate phytol", "value": "0.397 ± 0.099", "unit": "mmol/min/mg"}, {"measurement": "Mean sp act ± SD of Marinobacter WS2", "setting": "[1]; co-substrate phytol, listed as phytanoyl-CoA", "value": 0.397, "unit": "mmol/min/mg"}, {"measurement": "WE product formation by WS1 (TLC), in words", "setting": "[5]", "value": "fatty alcohols were not condensed to phytanoyl-CoA; also recorded: produced isoprenoid WEs from phytanoyl-CoA and the isoprenoid alcohols phytol and farnesol"}, {"measurement": "WE product formation by WS2 (TLC), in words", "setting": "[6]", "value": "fatty alcohols were not condensed to phytanoyl-CoA; also recorded: produced isoprenoid WEs from phytanoyl-CoA and the isoprenoid alcohols phytol and farnesol"}]}
{"molecule": "CCCCCCCCCCCCCC(=O)SCCNC(=O)CCNC(=O)[C@H](O)C(C)(C)COP(=O)(O)OP(=O)(O)OC[C@H]1O[C@@H](n2cnc3c(N)ncnc32)[C@H](O)[C@@H]1OP(=O)(O)O", "note": "[myristoyl-CoA, myristoyl-CoA (C14:0)]", "values": [{"measurement": "Acyl-CoA specificity of WS2", "setting": "[1]", "value": "poorly converted"}]}
{"molecule": "CCCCCCCCCCCCCCCCCCCC(=O)SCCNC(=O)CCNC(=O)[C@H](O)C(C)(C)COP(=O)(O)OP(=O)(O)OC[C@H]1O[C@@H](n2cnc3c(N)ncnc32)[C@H](O)[C@@H]1OP(=O)(O)O", "note": "[arachidoyl-CoA, arachidoyl-CoA (C20:0)]", "values": [{"measurement": "Acyl-CoA specificity of WS2", "setting": "[1]", "value": "readily accepted"}]}
{"molecule": "B1", "values": [{"measurement": "WS2 more active in vitro in producing acyl ester products than Acinetobacter WS/DGAT", "setting": "[1]; in vitro", "value": "approximately 150 times"}, {"measurement": "Km", "setting": "[7]", "value": 44, "unit": "µM"}, {"measurement": "Vmax", "setting": "[7]", "value": 10, "unit": "mmol/mg/min"}, {"measurement": "kcat", "setting": "[7]", "value": "4,794 s^−1"}, {"measurement": "Km", "setting": "[8]", "value": 23, "unit": "µM"}, {"measurement": "kcat/Km", "setting": "[8]", "value": "2.56 × 10^6 (M^−1 s^−1) M^−1 s^−1"}]}
